Measured values from PMC7594079, “Insights into the Function and Evolution of Taste 1 Receptor Gene Family in the Carnivore Fish Gilthead Seabream (Sparus aurata)” (International Journal of Molecular Sciences, 2020).

What follows are compounds tested against T1, saT1R2b/R3 (Sparus aurata, UniProt A0A671TG56+A0A671VZB3) (assay: saT1R2b/R3 heterodimer transiently transfected in stable pGL3-NFAT-luc-HEK293 (Cl.3) cells, luciferase reporter). Conditions: as molarity; decimal comma.
T1 sequence (A0A671TG56 20-821): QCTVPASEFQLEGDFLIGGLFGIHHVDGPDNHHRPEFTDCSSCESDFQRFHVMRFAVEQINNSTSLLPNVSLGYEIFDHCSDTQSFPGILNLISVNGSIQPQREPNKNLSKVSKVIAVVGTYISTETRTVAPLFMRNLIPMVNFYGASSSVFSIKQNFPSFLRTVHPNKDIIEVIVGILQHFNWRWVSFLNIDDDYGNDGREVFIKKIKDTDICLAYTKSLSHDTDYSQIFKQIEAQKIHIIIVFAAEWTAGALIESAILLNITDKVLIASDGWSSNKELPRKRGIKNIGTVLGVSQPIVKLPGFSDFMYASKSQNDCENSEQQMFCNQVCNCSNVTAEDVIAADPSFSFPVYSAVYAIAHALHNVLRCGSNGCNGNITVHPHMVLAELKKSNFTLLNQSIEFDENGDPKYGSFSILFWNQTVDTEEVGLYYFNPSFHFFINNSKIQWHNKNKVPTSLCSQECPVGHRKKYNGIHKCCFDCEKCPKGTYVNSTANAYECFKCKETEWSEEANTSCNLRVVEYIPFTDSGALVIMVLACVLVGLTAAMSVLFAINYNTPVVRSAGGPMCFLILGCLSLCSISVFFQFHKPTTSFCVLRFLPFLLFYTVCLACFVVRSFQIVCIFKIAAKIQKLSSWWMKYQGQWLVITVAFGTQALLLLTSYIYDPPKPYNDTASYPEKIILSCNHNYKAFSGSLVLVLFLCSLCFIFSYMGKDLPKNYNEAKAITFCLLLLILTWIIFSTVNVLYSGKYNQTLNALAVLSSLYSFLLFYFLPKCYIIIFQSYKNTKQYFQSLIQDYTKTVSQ
T1 sequence (A0A671VZB3 24-860): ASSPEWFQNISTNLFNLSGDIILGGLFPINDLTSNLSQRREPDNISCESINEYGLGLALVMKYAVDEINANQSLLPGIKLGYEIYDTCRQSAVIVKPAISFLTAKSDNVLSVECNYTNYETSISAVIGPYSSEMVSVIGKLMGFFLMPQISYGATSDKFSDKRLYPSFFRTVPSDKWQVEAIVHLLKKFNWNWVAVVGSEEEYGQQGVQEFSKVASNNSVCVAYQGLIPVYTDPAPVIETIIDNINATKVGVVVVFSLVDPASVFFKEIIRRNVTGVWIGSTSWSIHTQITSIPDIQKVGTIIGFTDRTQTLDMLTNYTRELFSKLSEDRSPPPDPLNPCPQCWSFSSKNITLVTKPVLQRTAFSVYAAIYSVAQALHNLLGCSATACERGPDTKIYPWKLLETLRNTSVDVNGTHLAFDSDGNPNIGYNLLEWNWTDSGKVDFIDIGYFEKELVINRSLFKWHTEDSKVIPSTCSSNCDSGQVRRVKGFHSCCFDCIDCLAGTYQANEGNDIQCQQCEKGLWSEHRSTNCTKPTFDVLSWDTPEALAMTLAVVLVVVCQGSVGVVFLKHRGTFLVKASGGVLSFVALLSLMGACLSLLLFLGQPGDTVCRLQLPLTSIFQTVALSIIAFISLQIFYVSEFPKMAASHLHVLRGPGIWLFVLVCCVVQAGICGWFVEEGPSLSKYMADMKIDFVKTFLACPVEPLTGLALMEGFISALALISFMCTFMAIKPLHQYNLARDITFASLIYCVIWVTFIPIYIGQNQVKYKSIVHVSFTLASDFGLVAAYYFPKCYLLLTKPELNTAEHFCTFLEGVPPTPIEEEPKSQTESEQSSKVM
Type: cell-based
From the text: Figure 6 Amino acid Log-dose response curves of activation in heterologous co-transfected (Cl.3) cells with saT1R1/3 (green dots), saT1R2a/3 (red squares) and saT1R2b/3 (black triangles) heterodimers. Evaluation of L-AA responses was based on the RLU mean ± SEM of four independent determinations normalized to the mean response of the same transfections stimulated with reduced assay medium (Basal Medium Eagle w/o L-glutamate (BME) + 1% FBS), and expressed as the percentage relative to basal levels (BL).
HEK293 cells were cultured in standard medium DMEM (Gibco, Thermo Fisher, Saint Louis, MO, USA) containing 10% FBS, penicillin (100 U/mL) and streptomycin ([…]) at 37 °C, with a humidified atmosphere at 5% CO2. pGL3-NFAT-luc-HEK293 stable clones were generated by co-transfections of pGL3-NFAT-luc and tgCMV/HyTK plasmids (50:1), the latter harboring the hygromycin phosphotransferase gene, using Lipofectamine LTX according to supplier’s protocols (Thermo Fisher, Saint Louis, MO, USA). Initially, HEK293 cells were selected using DMEM containing 400 μg/mL hygromycin B (Sigma, Darmstadt, Germany) in 24-well plates for two weeks; 24 colonies were further grown out in 96-well plates under reduced hygromycin selection (200 µg/mL) for three weeks. Potentially resistant NFAT-luc-HEK293 clones (n = 22) were validated after incubation in assay medium (DMEM + 1% FBS) containing PMA or Ionomycin (Sigma, Darmstadt, Germany) for 18 h (triplicates, 50,000 cells/well). Luciferase activity was quantified with ONE-Glo™ EX Reagent Kit (Promega, Madison, WI, USA) using a 96-microplate TECAN reader (Trading AG, Switzerland).
saT1Rs (saT1R1, saT1R2a, saT1R2b saT1R3) and saGαi1-2 genes were RT-PCR amplified using 5’ and 3’ flanking primers carrying HindIII and XhoI restriction sites, respectively. Gel-purified fragments were cloned into pGEM-T Easy vectors, re-sequenced, digested and subcloned into pcDNA™3 (Invitrogen, Carlsbad, CA, USA). Effective saT1R cloning into pcDNA™3 was further verified by HindIII/XhoI digestion. Transient co-transfections were done in 6-well plates (confluence ~70–80%) using 100 μL of reduced serum medium (Opti-MEM, Gibco, Thermo Fisher, Saint Louis, MO, USA) containing 150 ng of each selected pcDNA™3 construct, 1:10 charge ratio of Enhanced Green Fluorescent expressing construct (EGFP; positive control), and pBluescript II SK (+) vector DNA (Addgene, Watertown, MA, USA) up to 1 µg of totally transfected DNA. Following 24 h incubation, cells were washed with fresh standard medium and plated in polylysine treated plates for additional 24 h. Cells were then stimulated with L-AAs and sugar compounds for 18 h in a reduced assay medium (BME w/o L-glutamate; Gibco, Thermo Fisher, Saint Louis, MO, USA) + 1% FBS), to prevent unspecific Ca^2+/NFAT signaling activation and potential saT1R desensitization. All L-AAs and sugars used for in vitro experiments were obtained from Merck KGaA (Darmstadt, Germany).

Structure (SMILES)	T1R2b/R3 [MSD] maximum stimulation dose
O=C(O)[C@@H]1CCCN1 [Pro, Proline]	1,00 × 10^-1 M
C[C@@H](O)[C@H](N)C(=O)O [Thr, Threonine]	1,00 × 10^-1 M
CC(C)C[C@H](N)C(=O)O [Leu, Leucine]	1,00 × 10^-1 M
NCCCC[C@H](N)C(=O)O [Lys, Lysine]	1,00 × 10^-3 M
N[C@@H](CC(=O)O)C(=O)O [Asp, Aspartic acid]	1,00 × 10^-5 M
CSCC[C@H](N)C(=O)O [Met, Methionine]	1,00 × 10^-1 M
N[C@@H](CO)C(=O)O [Ser, Serine]	1,00 × 10^-1 M
CC[C@H](C)[C@H](N)C(=O)O [Ile, Isoleucine]	1,00 × 10^-1 M
N[C@@H](Cc1c[nH]cn1)C(=O)O [His, Histidine]	1,00 × 10^-5 M
N[C@@H](Cc1ccccc1)C(=O)O [Phe, Phenylalanine]	1,00 × 10^-2 M
N[C@@H](CCC(=O)O)C(=O)O [Glu, Glutamic acid]	1,00 × 10^-2 M
NCC(=O)O [Gly, Glycine]	1,00 × 10^-1 M
N[C@@H](CS)C(=O)O [Cys, Cysteine]	1,00 × 10^-4 M
CC(C)[C@H](N)C(=O)O [Val, Valine]	1,00 × 10^-1 M
N[C@@H](Cc1ccc(O)cc1)C(=O)O [Tyr, Tyrosine]	1,00 × 10^-3 M
NC(=O)C[C@H](N)C(=O)O [Asn, Asparagine]	1,00 × 10^-1 M
N[C@@H](Cc1c[nH]c2ccccc12)C(=O)O [Trp, Tryptophan]	1,00 × 10^-3 M
NC(=O)CC[C@H](N)C(=O)O [Gln, Glutamine]	1,00 × 10^-1 M
C[C@H](N)C(=O)O [Ala, Alanine]	1,00 × 10^-1 M
N=C(N)NCCC[C@H](N)C(=O)O [Arg, Arginine]	1,00 × 10^-5 M

Same assay, conditions: saT1R2b/R3; tested 1–500 mM

Structure (SMILES)	concentration with significant activation [mM]
OC[C@H]1OC(O)[C@H](O)[C@@H](O)[C@@H]1O (stereo partly drawn) [D-Glucose]	200
